{"source": "paper PMC4284722", "about": "“Intrinsic Tryptophan Fluorescence in the Detection and Analysis of Proteins: A Focus on Förster Resonance Energy Transfer Techniques” (International Journal of Molecular Sciences, 2014)", "origin": "cited, not measured here", "system": "serum albumin", "design": "method as in PMID 2313585, PMID 19683079", "details": "nonspecific ligand of serum albumin"}
{"smiles": "O=S(=O)(O)c1cccc2cccc(Nc3ccccc3)c12", "note": "[ANS, 1-anilinonaphthalene-8-sulfonate]", "values": [{"measurement": "affinity", "value": "moderate affinity"}]}
